Experiments:
murine MEKK2 (mMEKK2) [1] = biological target: T1, murine MEKK2 (mMEKK2) (Mus musculus, UniProt Q61083); assay: MEKK2 PhosphoELISA (mMEKK2/MKK4); type: biochemical; details: substrate MKK4/SKK1 (unactive), ATP final 10 μM, O.D. 450 nm
T1 sequence (Q61083 1-619): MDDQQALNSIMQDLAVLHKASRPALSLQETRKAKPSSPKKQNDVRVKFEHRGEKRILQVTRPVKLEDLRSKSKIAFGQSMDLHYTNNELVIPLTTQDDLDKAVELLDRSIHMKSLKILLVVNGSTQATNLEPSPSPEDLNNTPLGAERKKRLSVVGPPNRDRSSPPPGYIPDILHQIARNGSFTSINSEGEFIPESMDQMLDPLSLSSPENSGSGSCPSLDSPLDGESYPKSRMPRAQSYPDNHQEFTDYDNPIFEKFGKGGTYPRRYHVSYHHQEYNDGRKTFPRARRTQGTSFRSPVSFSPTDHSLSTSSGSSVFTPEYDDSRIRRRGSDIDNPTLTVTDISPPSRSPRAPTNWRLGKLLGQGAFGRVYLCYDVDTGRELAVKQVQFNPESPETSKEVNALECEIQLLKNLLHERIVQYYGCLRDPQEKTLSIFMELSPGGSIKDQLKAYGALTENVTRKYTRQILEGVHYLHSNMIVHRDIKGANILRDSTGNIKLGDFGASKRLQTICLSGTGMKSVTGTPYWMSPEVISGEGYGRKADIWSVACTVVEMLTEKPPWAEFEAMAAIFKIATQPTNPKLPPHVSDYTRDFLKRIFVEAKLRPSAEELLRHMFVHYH
Excerpt: Another useful method for assessing protein kinase inhibition, and specifically MEKK2 inhibition, of compounds of the invention involves the MEKK2 phospho-antibody enzyme-linked immunosorbent assay (PhosphoELISA). This screening panel, which involves relatively few steps, is a useful indicator of potential inhibitors of MEKK2. Reactions to murine MEKK2 are observed as optical density measurements at an absorbance of 450 nm. Inhibitory activities can be expressed in terms of IC50, where IC50 is the molar concentration of compound required to inhibit protein kinase binding by 50%.
A phospho-antibody enzyme-linked immunosorbent assay (PhosphoELISA) was used to screen potential inhibitors of MEKK2. The assay was performed as follows: Compounds to be tested were weighed and solubilized in DMSO (Sigma) to a stock concentration of 10 mM. Serial dilutions starting from 1 mM were prepared with additional DMSO. These dilutions were further diluted to 250 μM in kinase reaction buffer [20 mM Hepes pH 7.5, 5 mM MgCl2, 1 mM DTT (Dithiothreitol-Sigma), 1 mM NaVO4 (sodium vanadate- Sigma). A 25 μl aliquot of this solution was transferred to a glutathione coated 96-well microplate (Pierce). A stock aliquot containing 50-125 ng of murine MEKK2 (mMEKK2) was added to each well and incubated on the microplate for 10 minutes at room temperature. A 25 μl solution of MKK4/SKK1 (unactive) was diluted 1:200 in kinase assay buffer and added to the reaction plate followed by 50 μl of 25 μM ATP (adenosine triphosphate) to afford a final well concentration of 10 μM. The reaction was allowed to proceed for 60 minutes at room temperature before washing 3 times with wash buffer [100 mM phosphate pH 7.5, 0.05% TWEEN 20 (Sigma)]. A solution of anti-phospho MKK4/SEK1 antibody (Calbiochem) and biotin anti rabbit IgG (Jackson Immunoresearch) was diluted 1:2500 in kinase reaction buffer and added to the appropriate wells. The reaction was incubated for 60 minutes at room temperature. The microplate was washed 3 times with wash buffer and 100 ul of streptavidin horseradish peroxidase (HRP-Pierce) was added and incubated for 30 minutes at room temperature. The microplate was washed 3 times with wash buffer and 100 μl of TMB (3,3′,5,5′-tetramethylbenzidine-Sigma) was added. The assay was allowed to develop for 15-20 minutes then the reaction was stopped with the addition of 100 μl of 0.2 N sulfuric acid. The optical density (O.D.) of the plate was read on the Victor™ plate reader using the absorbance at 450 nm.

murine MEKK2 (mMEKK2) [2] = biological target: T1, murine MEKK2 (mMEKK2); assay: TR-FRET kinase assay (mMEKK2/MBP); type: biochemical; details: substrate biotin MBP, 60 minutes at room temperature
Description: In one approach, MEKK2 inhibitory activity of compounds of the invention can be assessed using the time-resolved Fluorescence Resonance Energy Transfer (TR-FRET) assay detailed in Example 5. In this assay, the excitation energy of one fluorescent molecule (the donor) is transferred by a resonance mechanism to a nearby second fluorescent molecule (the acceptor), which then releases its fluorescent energy through fluorescent emission. This fluorescent energy is measured using a time-resolved fluorescence measurement protocol (LANCE high count 615/665); excitation occurred with 1,000 flashes at 325 nm, measurement was delayed by 100 μs, and data were acquired for 50 μs at 615 and 665 nm.
A TR-FRET kinase assay was used to screen potential inhibitors of MEKK2. The assay was performed as follows: Compounds to be tested were weighed and solubilized in DMSO (Sigma) to a stock concentration of 10 mM. Serial dilutions starting from 1 mM were prepared with additional DMSO. These dilutions were further diluted to 250 μM in kinase reaction buffer [20 mM Hepes pH 7.5, 5 mM MgCl2, 1 mM DTT (Dithiothreitol-Sigma), 1 mM NaVO4 (sodium vanadate-Sigma). A 25 μl aliquot of this solution was transferred to a black 96-well nonbinding surface microplate (Fisher). A stock aliquot containing […] of murine MEKK2 (mMEKK2) was diluted in the kinase reaction buffer and incubated with the compounds on the microplate for 10 minutes. A 25 μl aliquot of a 138 ng solution of biotin MBP (myelin basic protein—Upstate Biotechnology) was added to the reaction followed by 25 ul of a 25 ng solution of anti-phospho MBP antibody (Upstate Biotechnology) diluted in kinase reaction buffer. Finally an aliquot (50 μl) of a 5 uM solution of ATP (adenosine triphosphate) was added and the reaction was allowed to proceed for 60 minutes at room temperature. The reaction was stopped by the addition of 50 μL of a 12.5 ng solution of europium labeled anti-mouse IgG (Perkin Elmer) and 45 ng of Cy5 labeled streptavidin (Jackson Immunoresearch) in termination buffer (20 mM Hepes pH 7.5, 100 mM EDTA; Sigma). The assay was allowed to equilibrate for 45 minutes before placing the plate on the Victor™ plate reader. The plate was read using the 615/665 LANCE protocol.

Row | IC50 (murine MEKK2 (mMEKK2) [1]) [µM] | IC50 (murine MEKK2 (mMEKK2) [2]) [µM] | Structure (SMILES)
1 | < 1 | – | N#Cc1c(-c2ccc(-c3cc4ccccc4s3)cc2)nc(SCc2cccc(NC(=O)c3ccc(Cl)c(Cl)c3)c2)[nH]c1=O [Example 2aa, N-{3-[4-(4-Benzo[b]thiophen-2-yl-phenyl)-5-cyano-6-oxo-1,6-dihydro-pyrimidin-2-ylsulfanylmethyl]-phenyl}-3,4-dichloro-benzamide]
2 | < 1 | – | N#Cc1c(-c2cccc(OC(F)(F)F)c2)nc(SCc2cccc(NC(=O)c3ccc(Cl)c(Cl)c3)c2)[nH]c1=O [Example 2cc, 3,4-Dichloro-N-{3-[5-cyano-6-oxo-4-(3-trifluoromethoxy-phenyl)-1,6-dihydro-pyrimidin-2-ylsulfanylmethyl]-phenyl}-benzamide]
3 | < 1 | – | CC(C)(C)OC(=O)n1c(-c2cccc(-c3nc(SCc4cccc(NC(=O)c5ccc(Cl)c(Cl)c5)c4)[nH]c(=O)c3C#N)c2)cc2ccccc21 [Example 2jj, 2-(3-{5-Cyano-2-[3-(3,4-dichloro-benzoylamino)-benzylsulfanyl]-6-oxo-1,6-dihydro-pyrimidin-4-yl}-phenyl)-indole-1-carboxylic acid tert-butyl ester]
4 | < 5 | – | N#Cc1c(-c2cccc(-c3cc4ccccc4[nH]3)c2)nc(SCc2cccc(NC(=O)c3ccc(Cl)c(Cl)c3)c2)[nH]c1=O [Example 2kk, 3,4-Dichloro-N-(3-{5-cyano-4-[3-(1H-indol-2-yl)-phenyl]-6-oxo-1,6-dihydro-pyrimidin-2-ylsulfanylmethyl}-phenyl)-benzamide]
5 | < 5 | – | N#Cc1c(-c2c[nH]c3ccccc23)nc(SCc2cccc(NC(=O)c3ccc(Cl)c(Cl)c3)c2)[nH]c1=O [Example 2ll, 3,4-Dichloro-N-{3-[5-cyano-4-(1H-indol-3-yl)-6-oxo-1,6-dihydro-pyrimidin-2-ylsulfanylmethyl]-phenyl}-benzamide]
6 | < 1 | – | N#Cc1c(-c2c[nH]c3ccc(Br)cc23)nc(SCc2cccc(NC(=O)c3ccc(Cl)c(Cl)c3)c2)[nH]c1=O [Example 2mm, N-{3-[4-(5-Bromo-1H-indol-3-yl)-5-cyano-6-oxo-1,6-dihydro-pyrimidin-2-ylsulfanylmethyl]-phenyl}-3,4-dichloro-benzamide]
7 | < 1 | – | N#Cc1c(-c2cccc(Br)c2)nc(SCc2cccc(NC(=O)c3ccc(Cl)c(Cl)c3)c2)[nH]c1=O [Example 2nn, N-{3-[4-(3-Bromo-phenyl)-5-cyano-6-oxo-1,6-dihydro-pyrimidin-2-ylsulfanylmethyl]-phenyl}-3,4-dichloro-benzamide]
8 | < 5 | – | COc1cccc(-c2nc(SCc3cccc(NC(=O)c4ccc(F)c(F)c4)c3)[nH]c(=O)c2C#N)c1 [Example 2oo, N-{3-[5-Cyano-4-(3-methoxy-phenyl)-6-oxo-1,6-dihydro-pyrimidin-2-ylsulfanylmethyl]-phenyl}-3,4-difluoro-benzamide]
9 | < 1 | – | COc1cccc(-c2nc(SCc3cccc(NC(=O)Nc4ccc(Cl)c(Cl)c4)c3)[nH]c(=O)c2C#N)c1 [Example 3a, 1-{3-[5-Cyano-4-(3-methoxy-phenyl)-6-oxo-1,6-dihydro-pyrimidin-2-ylsulfanylmethyl]-phenyl}-3-(3,4-dichloro-phenyl)-urea]
10 | > 40 | – | COc1cccc(-c2nc(SCc3cccc(NCc4cccc(OCCN(C)C)c4)c3)[nH]c(=O)c2C#N)c1 [Example 4a]
11 | 20 | – | CN(CCOc1ccc(-c2nc(SCc3cccc(NC(=O)c4ccc(Cl)c(Cl)c4)c3)[nH]c(=O)c2C#N)cc1)c1ccncc1 [Example 4aa]
12 | > 40 | – | COc1cccc(-c2nc(SCc3cccc(NCc4cnc(O)nc4O)c3)[nH]c(=O)c2C#N)c1 [Example 4d]
13 | > 40 | – | CCc1nc(C)c(-c2nc(SCc3cccc(NC(=O)c4ccc(Cl)c(Cl)c4)c3)[nH]c(=O)c2C#N)[nH]1 [Example 4dd]
14 | > 40 | – | COc1cccc(-c2nc(SCCCn3cnc4c(NC(=O)c5ccccc5)ncnc43)[nH]c(=O)c2C#N)c1 [Example 4ee]
15 | > 40 | – | COc1cccc(-c2nc(SCCCn3cnc(NC(=O)c4ccc(Cl)c(Cl)c4)n3)[nH]c(=O)c2C#N)c1 [Example 4ff]
16 | – | > 40 | N#Cc1c(-c2cccc(O)c2)nc(SCc2cccc(NCC3CCN(c4ccncc4)CC3)c2)[nH]c1=O [Example 4k]
17 | – | < 5 | N#Cc1c(-c2cccc(O)c2)nc(SCc2cccc(NC(=O)c3ccc(Cl)c(Cl)c3)c2)[nH]c1=O [Example 4l]
18 | < 20 | – | N#Cc1c(-c2cccc(C(=O)O)c2)nc(SCc2cccc(NC(=O)c3ccc(Cl)c(Cl)c3)c2)[nH]c1=O [Example 4m]
19 | – | < 5 | N#Cc1c(-c2cccc(F)c2)nc(SCc2cccc(NC(=O)c3ccc(Cl)c(Cl)c3)c2)[nH]c1=O [Example 4o]
20 | < 5 | – | N#Cc1c(-c2cccc(S(=O)(=O)NCc3ccccc3)c2)nc(SCc2cccc(NC(=O)c3ccc(Cl)c(Cl)c3)c2)[nH]c1=O [Example 4p]
21 | < 1 | – | N#Cc1c(-c2cccc(-n3cccc3)c2)nc(SCc2cccc(NC(=O)c3ccc(Cl)c(Cl)c3)c2)[nH]c1=O [Example 4q]
22 | < 5 | – | N#Cc1c(-c2ccc(-n3ccnc3)cc2)nc(SCc2cccc(NC(=O)c3ccc(Cl)c(Cl)c3)c2)[nH]c1=O [Example 4r]
23 | < 1 | – | N#Cc1c(-c2ccc(-n3cccc3)cc2)nc(SCc2cccc(NC(=O)c3ccc(Cl)c(Cl)c3)c2)[nH]c1=O [Example 4s]
24 | < 20 | – | N#Cc1c(-c2ccc(-n3cccn3)cc2)nc(SCc2cccc(NC(=O)c3ccc(Cl)c(Cl)c3)c2)[nH]c1=O [Example 4t]
25 | < 10 | – | N#Cc1c(-c2cccc(-n3ccnc3)c2)nc(SCc2cccc(NC(=O)c3ccc(Cl)c(Cl)c3)c2)[nH]c1=O [Example 4u]
26 | < 1 | – | N#Cc1c(-c2cccc(N3CCCC3)c2)nc(SCc2cccc(NC(=O)c3ccc(Cl)c(Cl)c3)c2)[nH]c1=O [Example 4w]
27 | > 40 | – | CCOC(=O)C1CCN(c2ccccc2-c2nc(SCc3cccc(NC(=O)c4ccc(Cl)c(Cl)c4)c3)[nH]c(=O)c2C#N)CC1 [Example 4x]
28 | – | < 5 | N#Cc1c(-c2cccc(NCC[C@@H](O)[C@@H](O)CO)c2)nc(SCc2cccc(NC(=O)c3ccc(Cl)c(Cl)c3)c2)[nH]c1=O [Example 4y]

Source: patent publication US20060100226A1, “2-Thiopyrimidinones as therapeutic agents” (priority 2004, published 2006)
